Usually IC50 stands for the concentration needed to halve the response being measured.

SMILES strings stand for the structures.

In this assay the target is P2X7 receptor (Homo sapiens (Human), UniProt Q99572). Briefly: P2X7 FLIPR assay (BzATP-stimulated calcium fluorescence, antagonist IC50). It counts as cell-based. In a few lines: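 Cells expressing P2X7 receptor (human, rat or mouse), plated 24 hours earlier in low-serum medium, loaded with Fluo-4 NW dye (30 min 37° C, 30 min room temperature).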
P2X7 receptor, sequence (Q99572 whole entry): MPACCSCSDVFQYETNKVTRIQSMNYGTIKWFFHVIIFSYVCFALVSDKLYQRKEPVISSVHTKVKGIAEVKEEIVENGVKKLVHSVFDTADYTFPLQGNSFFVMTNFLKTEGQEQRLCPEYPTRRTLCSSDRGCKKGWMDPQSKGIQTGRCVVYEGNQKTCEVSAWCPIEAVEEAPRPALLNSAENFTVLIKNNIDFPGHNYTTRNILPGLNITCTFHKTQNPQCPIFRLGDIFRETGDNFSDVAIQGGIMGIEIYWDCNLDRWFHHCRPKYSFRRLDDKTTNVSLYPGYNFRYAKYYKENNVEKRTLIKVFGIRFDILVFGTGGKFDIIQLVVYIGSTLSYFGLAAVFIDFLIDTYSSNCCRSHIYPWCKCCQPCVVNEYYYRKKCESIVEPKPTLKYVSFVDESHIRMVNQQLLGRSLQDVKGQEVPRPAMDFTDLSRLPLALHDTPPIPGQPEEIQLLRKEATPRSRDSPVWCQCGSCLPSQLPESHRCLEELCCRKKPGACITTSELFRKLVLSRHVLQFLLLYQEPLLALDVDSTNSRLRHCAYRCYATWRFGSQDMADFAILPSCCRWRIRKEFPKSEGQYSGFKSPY

For the compound `O=C(NCC(CC1(C(F)(F)F)CC1)c1ccc(C(F)(F)F)nc1)c1ccccc1Cl` (single isomer, unassigned; (+)) [(+)2-chloro-N-[3-[1-(trifluoromethyl)cyclopropyl]-2-[6-(trif] [(+)2-chloro-N-[3-[1-(trifluoromethyl)cyclopropyl]-2-[6-(trifluoromethyl)-3-pyridyl]propyl]benzamide], the IC50 is 0.09 nM. Regarding `Cc1ncc(C(CNC(=O)c2cccc(Cl)c2Cl)C2CCOCC2)cn1` (single isomer, unassigned; (+)) [(+)2,3-dichloro-N-[2-(2-methylpyrimidin-5-yl)-2-tetrahydropy] [(+)2,3-dichloro-N-[2-(2-methylpyrimidin-5-yl)-2-tetrahydropyran-4-yl-ethyl]benzamide], the IC50 stood at 28 nM. Regarding `O=C(NCC(c1ccccc1)c1ccnnc1)c1ccc(Cl)cc1Cl` (centres unmarked) [2,4-dichloro-N-(2-phenyl-2-pyridazin-4-yl-ethyl)benzamide], the IC50 was determined as 720 nM. Under `Cc1ccc(Cl)c(C(=O)NCC2(c3cccnc3)CCCC2)c1` [2-Chloro-5-methyl-N-(1-pyridin-3-yl-cyclopentylmethyl)-benzamide] stands 2900 nM; under `O=C(NCC(c1ccc(F)cc1)c1cnc(C(F)(F)F)nc1)c1cccc(F)c1Cl` (single isomer, unassigned; (-)) [(−)2-chloro-3-fluoro-N-[2-(4-fluorophenyl)-2-[2-(trifluorome] [(−)2-chloro-3-fluoro-N-[2-(4-fluorophenyl)-2-[2-(trifluoromethyl)pyrimidin-5-yl]ethyl]benzamide], 1.8 nM. Under `O=C(NCC1(c2ccc(Cl)cc2)CCOCC1)c1cccc(Cl)c1Cl` [2,3-dichloro-N-((4-(4-chlorophenyl)tetrahydro-2H-pyran-4-yl)methyl)benzamide] stands 43 nM; under `CC(C)(O)c1ccc(C(CNC(=O)c2cccc(Cl)c2Cl)CC2CC2)cn1` (single isomer, unassigned; (+)) [(+)2,3-dichloro-N-[3-cyclopropyl-2-[6-(1-hydroxy-1-methyl-et] [(+)2,3-dichloro-N-[3-cyclopropyl-2-[6-(1-hydroxy-1-methyl-ethyl)-3-pyridyl]propyl]benzamide], 740 nM.

On to `O=C(NCC1(c2cnc(C(F)(F)F)nc2)CCOCC1)c1c(F)cccc1Cl` [2-chloro-6-fluoro-N-[[4-[2-(trifluoromethyl)pyrimidin-5-yl]tetrahydropyran-4-yl]methyl]benzamide], for which the IC50 was found to be 1600 nM. The same measure for `O=C(NCC(CC1CC1)c1ccc(C(F)(F)F)nc1)c1c(F)cccc1Cl` (single isomer, unassigned; (-)) [(−)2-chloro-N-[3-cyclopropyl-2-[6-(trifluoromethyl)-3-pyridy] [(−)2-chloro-N-[3-cyclopropyl-2-[6-(trifluoromethyl)-3-pyridyl]propyl]-6-fluoro-benzamide]: 2.1 nM. As to `O=C(NCC1(c2ccc(C(F)(F)F)cc2)CCOCC1)c1cccc(Cl)c1Cl`, the half-inhibitory concentration (IC50) came to 41 nM. On to `N#Cc1ccccc1C(=O)NCC1(c2ccc(C(F)(F)F)nc2)CCC(F)(F)CC1` [2-cyano-N-((4,4-difluoro-1-(6-(trifluoromethyl)pyridin-3-yl)cyclohexyl)methyl)benzamide], for which the IC50 worked out at 150 nM.

Regarding `O=C(NCC(CC1CC1)c1ccc(C(F)(F)F)nc1)c1c(F)cccc1F` (single isomer, unassigned; (-)) [(−)N-[3-cyclopropyl-2-[6-(trifluoromethyl)-3-pyridyl]propyl]], the IC50 was determined as 130 nM. For the compound `O=C(NCC(c1ccc(F)cc1)c1cnc(C(F)(F)F)nc1)c1c(F)cccc1Cl` (single isomer, unassigned; (+)) [(+)2-chloro-6-fluoro-N-[2-(4-fluorophenyl)-2-[2-(trifluorome] [(+)2-chloro-6-fluoro-N-[2-(4-fluorophenyl)-2-[2-(trifluoromethyl)pyrimidin-5-yl]ethyl]benzamide], the half-maximal inhibitory concentration (IC50) stood at 6.7 nM.

On to `O=C(NCC(CC1(C(F)(F)F)CC1)c1cnc(C(F)(F)F)nc1)c1cccc(F)c1Cl` (single isomer, unassigned; (-)) [(−)2-chloro-3-fluoro-N-[3-[1-(trifluoromethyl)cyclopropyl]-2] [(−)2-chloro-3-fluoro-N-[3-[1-(trifluoromethyl)cyclopropyl]-2-[2-(trifluoromethyl)pyrimidin-5-yl]propyl]benzamide], for which the half-maximal inhibitory concentration (IC50) stood at 29 nM. The same measure for `O=C(NCC(CC1CC1)c1ccc(C(F)(F)F)nc1)c1c(F)cccc1Cl` (single isomer, unassigned; (+)) [(+)2-chloro-N-[3-cyclopropyl-2-[6-(trifluoromethyl)-3-pyridy] [(+)2-chloro-N-[3-cyclopropyl-2-[6-(trifluoromethyl)-3-pyridyl]propyl]-6-fluoro-benzamide]: 50 nM; for `CC(C)(O)c1ccc(C(CNC(=O)c2cccc(Cl)c2Cl)CC2CC2)cn1` (single isomer, unassigned; (-)) [(−)2,3-dichloro-N-[3-cyclopropyl-2-[6-(1-hydroxy-1-methyl-et] [(−)2,3-dichloro-N-[3-cyclopropyl-2-[6-(1-hydroxy-1-methyl-ethyl)-3-pyridyl]propyl]benzamide]: 30 nM; for `O=C(NCC(c1ccc(Cl)cc1)C1CCOCC1)c1cccc(Cl)c1Cl` (centres unmarked) [2,3-dichloro-N-[2-(4-chlorophenyl)-2-tetrahydropyran-4-yl-ethyl]benzamide]: 1.6 nM. Turning to `O=C(NCC(c1ccc(F)cc1)c1ccc(C(F)(F)F)nc1)c1cccc(Cl)c1Cl` (single isomer, unassigned; (-)) [(−)2,3-dichloro-N-[2-(4-fluorophenyl)-2-[6-(trifluoromethyl)] [(−)2,3-dichloro-N-[2-(4-fluorophenyl)-2-[6-(trifluoromethyl)-3-pyridyl]ethyl]benzamide], the 50% inhibitory concentration (IC50) was 9.4 nM. Consider `CC(C)(O)c1ccc(C2(CNC(=O)c3ccccc3Cl)CCC(F)(F)CC2)cn1` [2-chloro-N-[[4,4-difluoro-1-[6-(1-hydroxy-1-methyl-ethyl)-3-pyridyl]cyclohexyl]methyl]benzamide], for which the IC50 was found to be 380 nM.

With `O=C(NCC(c1cnc(C(F)(F)F)nc1)C1CCOCC1)c1c(F)cccc1Cl` (single isomer, unassigned; (+)) [(+)2-chloro-6-fluoro-N-[2-tetrahydropyran-4-yl-2-[2-(trifluo] [(+)2-chloro-6-fluoro-N-[2-tetrahydropyran-4-yl-2-[2-(trifluoromethyl)pyrimidin-5-yl]ethyl]benzamide], the half-inhibitory concentration (IC50) was determined as 56 nM. As to `O=C(NCC(CC1CC1)c1cnc(C(F)(F)F)nc1)c1c(Cl)cccc1Cl` (single isomer, unassigned; (-)) [(−)2,6-dichloro-N-[3-cyclopropyl-2-[2-(trifluoromethyl)pyrim] [(−)2,6-dichloro-N-[3-cyclopropyl-2-[2-(trifluoromethyl)pyrimidin-5-yl]propyl]benzamide], the IC50 worked out at 0.82 nM. `COc1ccccc1C(=O)NCC1(c2ccc(Cl)cc2)CCOCC1` [N-[4-(4-Chloro-phenyl)-tetrahydro-pyran-4-ylmethyl]-2-methoxy-benzamide]: the half-inhibitory concentration (IC50) was 620 nM.

Turning to `O=C(NCC(CC1CC1)c1cnc(C(F)(F)F)nc1)c1cccc(F)c1Cl` (single isomer, unassigned; (+)) [(+)2-chloro-N-[3-cyclopropyl-2-[2-(trifluoromethyl)pyrimidin] [(+)2-chloro-N-[3-cyclopropyl-2-[2-(trifluoromethyl)pyrimidin-5-yl]propyl]-3-fluoro-benzamide], the IC50 was 50 nM.

For the origin of these results see patent publication US9102591B2, “Benzamides” (H. Lundbeck A/S, priority 2012, dated 2015).
